Measured values taken from PubChem BioAssay (NCI).
Where “and” joins values, the source holds several entries; their conditions need not be identical. Identical values can stand only once.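 The compound was tested at five concentrations on cells cultured in 96-well plates, with a 48-hour exposure period. Here, GI50 denotes the concentration required for 50% inhibition of growth. TGI: concentration producing complete growth inhibition.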

Assays:
Experiment in all cases: NCI anticancer screen, dose series, 48 h
[1] = test system: A498 renal
[2] = test system: A549 NSCLC
[3] = test system: CCRF-CEM leukemia
[4] = test system: DU-145 prostate
[5] = test system: HL-60(TB) leukemia
[6] = test system: HOP-92 NSCLC
[7] = test system: LOX IMVI melanoma
[8] = test system: OVCAR-3 ovarian
[9] = test system: SK-MEL-28 melanoma
[10] = test system: SK-MEL-5 melanoma

Compound	GI50 [1]	TGI [1]	GI50 [2]	TGI [2]	GI50 [3]	TGI [3]	GI50 [4]	TGI [4]	GI50 [5]	TGI [5]	GI50 [6]	TGI [6]	GI50 [7]	TGI [7]	GI50 [8]	TGI [8]	GI50 [9]	TGI [9]	GI50 [10]	TGI [10]
CC(=O)[O][Hg][c]1c(C)c(C)cc(C)c1C	2.09 µM	4.38 µM	5.55 µM	15 µM	0.39 µM	13.5 µM	1.86 µM	4.62 µM	0.704 µM	2.61 µM	0.128 µM	0.705 µM	1.21 µM	3.06 µM	1.36 µM	2.71 µM	1.5 µM	3.02 µM	1.8 µM	4.66 µM
CCOC(=O)c1cnc2c(C)cccc2c1Nc1ccc(C(C)=O)cc1	11.9 µM	63.4 µM	38.8 µM	> 100 µM	> 100 µM	> 100 µM	33.3 µM	> 100 µM	> 100 µM	> 100 µM	8.95 µM	36.9 µM	47 µM	> 100 µM	26.1 µM	> 100 µM	50.2 µM	> 100 µM	3.75 µM	19.7 µM
c1cc2c(cn1)Nc1ccncc1S2	19.5 µM	55.4 µM	32.8 µM	> 100 µM	37.3 µM	> 100 µM	44.5 µM	> 100 µM	20.5 µM	68.5 µM	8.52 µM	76.6 µM	33.2 µM	> 100 µM	83 µM	> 100 µM	> 100 µM	> 100 µM	36.3 µM	> 100 µM
CC(=O)c1c(C)[nH]c(-c2nc3ccc(N4CCN(C)CC4)cc3[nH]2)c1-c1ccccc1	0.522 µM	4.79 µM	1.45 µM	22.5 µM	4.69 µM	> 100 µM	10.2 µM	47 µM	0.261 µM	12.7 µM	0.585 µM	24.5 µM	0.546 µM	10.1 µM	1.11 µM	15 µM	3.38 µM	19.9 µM	1.35 µM	10.4 µM
O=C1NC(=NCCCc2ccccc2)S/C1=C\c1ccc2ncccc2c1	3.81 µM	8.09 µM	4.68 µM	13.8 µM	7.11 µM	> 25 µM	5.89 µM	18 µM	5.49 µM	16 µM	4.22 µM	13.4 µM	5.12 µM	14.6 µM	4.81 µM	10.6 µM	6.51 µM	21.1 µM	4.63 µM	9.8 µM
CO[C@H]1C[C@@H]2CC[C@@H](C)[C@@](O)(O2)C(=O)C(=O)N2CCCC[C@H]2C(=O)O[C@H]([C@H](C)C[C@@H]2CC[C@@H](OCCO)[C@H](OC)C2)CC(=O)[C@H](C)C=C(C)[C@@H](O)[C@@H](OC)C(=O)[C@H](C)C[C@H](C)/C=C/C=C/C=C1C	< 0.01 µM	16.3 µM	< 0.01 µM	22.3 µM	–	> 43.1 µM	–	16.5 µM	8.63 µM	38.4 µM	0.0199 µM	20 µM	< 0.01 µM	17.8 µM	< 0.01 µM	16.7 µM	11.3 µM	24.5 µM	1.75 µM	18.1 µM
O=C1Cc2cc(C(=O)NC3C[C@H]4CC[C@@H](C3)N4S(=O)(=O)CC3CCN(CCCC(F)(F)F)CC3)c(Cl)cc2N1 (some centres undefined)	> 100 µM	> 100 µM	> 100 µM	> 100 µM	> 100 µM	> 100 µM	> 100 µM	> 100 µM	> 100 µM	> 100 µM	67.7 µM	> 100 µM	> 100 µM	> 100 µM	> 100 µM	> 100 µM	> 100 µM	> 100 µM	> 100 µM	> 100 µM
Cc1cc([N+](=O)[O-])c2ccccc2[n+]1[O-]	0.185 µM and 0.144 µM	0.464 µM and 0.416 µM	0.245 µM and 0.204 µM	0.807 µM and 0.905 µM	2.24 µM and 0.65 µM	> 47.8 µM and 7.18 µM	0.073 µM and 0.0815 µM	0.325 µM and 0.564 µM	2.11 µM and 1.65 µM	6.48 µM and 5.51 µM	0.308 µM and 0.153 µM	1.73 µM and 0.597 µM	1.16 µM and 0.385 µM	3.48 µM and 1.87 µM	0.392 µM and 0.319 µM	1.71 µM and 1.25 µM	1.61 µM	3.9 µM and 4.54 µM	0.171 µM and 0.157 µM	0.334 µM and 0.355 µM
CCc1nc(N)nc(N)c1-c1ccc(N2CCNCC2)cc1	–	> 100 µM	–	> 100 µM	–	> 86.7 µM	–	> 100 µM	–	> 71 µM	–	> 100 µM	–	> 100 µM	–	> 100 µM	–	> 100 µM	–	40.9 µM
CSc1ccc2c(c1)C(N1CCN(C)CC1)Cc1ccccc1S2 (centres undefined)	1.37 µM	25.8 µM and 2.8 µM	2.17 µM	24.2 µM and 5.72 µM	1.7 µM	0.845 µM and 3.84 µM	2.04 µM	31.4 µM and 4.38 µM	1.94 µM	10.7 µM and 3.81 µM	0.393 µM	7.77 µM and 2.62 µM	1.63 µM	4.05 µM and 3.05 µM	2.67 µM	28 µM and 7.22 µM	1.64 µM	3.06 µM	1.56 µM	3.53 µM and 2.9 µM
COC(=O)CSSCc1ccc([N+](=O)[O-])cc1	–	45.7 µM	–	88.8 µM	–	88 µM	–	50.7 µM	–	76.2 µM	–	> 100 µM	–	30.3 µM	–	46.5 µM	–	36.7 µM	–	50.9 µM
C#CCOc1ccc2ncnc(Nc3ccc(NC(=O)C=C)cc3)c2c1	> 100 µM	> 100 µM	> 100 µM	> 100 µM	4.26 µM	40.8 µM	25.4 µM	> 100 µM	4.97 µM	32.5 µM	7.84 µM	52.7 µM	3.92 µM	17.5 µM	8.24 µM	> 100 µM	23.6 µM	> 100 µM	> 100 µM	> 100 µM
Cn1ncc(Cl)c1-c1cc(C(=O)N[C@H](CN)Cc2ccc(F)c(F)c2)oc1Cl	0.0303 µM and 0.0404 µM	0.3 µM and 0.472 µM	1.57 µM and 1.2 µM	15 µM and > 10 µM	0.197 µM and 0.196 µM	11.8 µM and > 10 µM	4.25 µM and 2.48 µM	17.8 µM and > 10 µM	2.9 µM and 2.05 µM	9.62 µM and 6.76 µM	0.139 µM and 0.191 µM	2.42 µM and 1.42 µM	2.65 µM and 1.44 µM	19.9 µM and 4.19 µM	1.97 µM and 1.6 µM	15 µM and > 10 µM	1.02 µM and 0.935 µM	4.78 µM and 3.2 µM	2.15 µM and 1.48 µM	5.8 µM and 2.87 µM
C=C1C(=O)OC2/C=C(/C)C(OC(C)=O)C/C=C(\C)C(OC(=O)C3(C)OC3C)C(O)C12 (centres undefined)	–	> 100 µM	–	> 100 µM	–	> 100 µM	–	> 100 µM	–	> 100 µM	–	> 100 µM	–	> 100 µM	–	> 100 µM	–	> 100 µM	–	> 100 µM
COC(=O)c1ccc(NC(=O)Oc2ccc(N(CCCl)CCCl)cc2)cc1	3.35 µM	14.9 µM	1.65 µM	> 100 µM	0.782 µM	> 100 µM	3.6 µM	19.9 µM	0.867 µM	11.6 µM	14.3 µM	53.4 µM	3.69 µM	> 100 µM	7.77 µM	22.3 µM	30.7 µM	> 100 µM	13.1 µM	> 100 µM
CN(C)C(=S)SCC(=O)Nc1ccccc1	–	> 100 µM	–	> 100 µM	–	> 100 µM	–	> 100 µM	–	> 100 µM	–	> 100 µM	–	> 100 µM	–	> 100 µM	–	> 100 µM	–	> 100 µM
O=[N+]([O-])c1cccc(C2CC(c3ccccc3)=Nc3ccccc3S2)c1 (centres undefined)	14.7 µM	95.8 µM	30.6 µM	> 100 µM	5.91 µM	> 100 µM	16.8 µM	34.3 µM	26.5 µM	84.7 µM	14.3 µM	45.6 µM	3.02 µM	11.9 µM	13.3 µM	26.1 µM	17.4 µM	34.2 µM	15.9 µM	29.6 µM
COc1cc2cc(Oc3ccc(NC(=O)Nc4ccc(Cl)c(Cl)c4)cc3)c(C)nc2cc1OC	1.95 µM	7.93 µM	1.64 µM	7.61 µM	2.38 µM	14 µM	4.27 µM	17.1 µM	2.76 µM	6.75 µM	2.04 µM	4.88 µM	3.45 µM	14.6 µM	2.34 µM	6.19 µM	3.77 µM	14.7 µM	2.58 µM	8.09 µM
CC[n+]1c(/C=C/C=C2\N(C)c3ccccc3C2(C)C)sc2ccccc21	5.04 µM	12 µM	4.77 µM	10 µM	4.96 µM	18.1 µM	4.15 µM	7.76 µM	5.16 µM	12.1 µM	3.54 µM	10.8 µM	4 µM	8.48 µM	3.97 µM	7.52 µM	4.17 µM	7.97 µM	3.79 µM	7.33 µM
COc1cc2nc3cc([N+](=O)[O-])ccc3c(NCCNCC(C)(C)O)c2cc1OC	1.83 µM	3.63 µM	1.22 µM	5.64 µM	0.573 µM	5.13 µM	0.44 µM	2.34 µM	2.83 µM	7.49 µM	0.503 µM	2.43 µM	0.715 µM	2.51 µM	0.373 µM	1.3 µM	–	–	–	–
